Test results from US20230263822A1, “MODULATION OF FACTOR 11 EXPRESSION” (Ionis Pharmaceuticals, Inc., priority 2008, published 2023).
Strand notation (5' to 3'): a small letter for the sugar, then the base; units joined by * are phosphorothioate-linked, units joined directly phosphodiester-linked; [ ] holds rarer units or linkages, { } end groups; capitals alone tell only the bases. e = 2'-O-(2-methoxyethyl) (MOE); [5mC] = 5-methylcytosine; d = 2'-deoxy (DNA)

How the values were obtained:
[1] = tested on: human Factor 11 mRNA; experiment: Dose-dependent inhibition of human Factor 11 in HepG2 cells, electroporation 375-12,000 nM (Example 32); assay type: cell-based; conditions: for Percent inhibition of Factor 11 mRNA at 375 nM / Percent inhibition of Factor 11 mRNA at 750 nM / IC50: electroporation; for Percent inhibition of Factor 11 mRNA at 375 nM / Percent inhibition of Factor 11 mRNA at 750 nM / Percent inhibition of Factor 11 mRNA at 1,500 nM / Percent inhibition of Factor 11 mRNA at 3,000 nM / Percent inhibition of Factor 11 mRNA at 6,000 nM / Percent inhibition of Factor 11 mRNA at 12,000 nM: approx. 16 hours, relative to untreated control cells; for Percent inhibition of Factor 11 mRNA at 1,500 nM: electroporation, 1,500 nM; for Percent inhibition of Factor 11 mRNA at 3,000 nM: electroporation, 3,000 nM; for Percent inhibition of Factor 11 mRNA at 6,000 nM: electroporation, 6,000 nM; for Percent inhibition of Factor 11 mRNA at 12,000 nM: electroporation, 12,000 nM; for IC50: Factor 11 mRNA expression
Protocol: These gapmers were tested at various doses in HepG2 cells. Cells were plated at a density of 20,000 cells per well and transfected using electroporation with 375 nM, 750 nM, 1,500 nM, 3,000 nM, 6,000 nM and 12,000 nM concentrations of antisense oligonucleotide, as specified in Table 47. After a treatment period of approximately 16 hours, RNA was isolated from the cells and Factor 11 mRNA levels were measured by quantitative real-time PCR. Human Factor 11 primer probe set RTS 2966 was used to measure mRNA levels. Factor 11 mRNA levels were adjusted according to total RNA content, as measured by RIBOGREEN. Results are presented as percent inhibition of Factor 11, relative to untreated control cells.
ISIS 416850, ISIS 416858, ISIS 445522, and ISIS 445531 (see Table 45 above) were re-tested in vitro along with the microwalk gapmers under the same conditions described above.
The first two listed gapmers in Table 47 are the original gapmers (ISIS 416850 and ISIS 416858) from which the remaining gapmers were designed via microwalk and are designated by an asterisk.

[2] = tested on: blood coagulation; experiment: PT and aPTT assay in cynomolgus monkeys (Example 45); assay type: in vivo; conditions: platelet poor plasma
Protocol: Groups, each consisting of two male and three female monkeys, were injected subcutaneously with ISIS 416838, ISIS 416850, ISIS 416858, ISIS 416864, or ISIS 417002 in escalating doses. Antisense oligonucleotide was administered to the monkeys at 5 mg/kg three times per a week for week 1; 5 mg/kg twice per week for weeks 2 and 3; 10 mg/kg three times per week for week 4; 10 mg/kg twice per week for weeks 5 and 6; 25 mg/kg three times per week for week 7; and 25 mg/kg twice per week for weeks 8, 9, 10, 11, and 12. One control group, consisting of two male and three female monkeys, was injected subcutaneously with PBS according to the same dosing regimen. An additional experimental group, consisting of two male and three female monkeys, was injected subcutaneously with ISIS 416850 in a chronic, lower dose regimen. Antisense oligonucleotide was administered to the monkeys at 5 mg/kg three times per week for week 1; 5 mg/kg twice per week for week 2 and 3; 10 mg/kg three times per week for week 4; and 10 mg/kg twice per week for weeks 5 to 12. Body weights were measured weekly. Blood samples were collected 14 days and 5 days before the start of treatment and subsequently once per week for Factor 11 protein activity analysis in plasma, fibrinogen measurement, PT and aPTT measurements, bleeding times, and measurement of various hematologic factors. On day 85, the monkeys were euthanized by exsanguination while under deep anesthesia, and organs harvested for further analysis.
Blood samples were collected in tubes containing sodium citrate. PT and aPTT were determined in duplicate with an ACL 9000 coagulation instrument (Instrumentation Laboratory, Italy). The results were interpolated on a standard curve of serial dilutions citrated control monkey plasma tested to give a reported result in percent normal.
Prothrombin Time (PT) and Activated Partial Thromboplastin Time (aPTT) were measured using platelet poor plasma (PPP) from monkeys treated with ISIS oligonucleotides. PT and aPTT values are provided in Tables 116 and 117 and are reported as International Normalized Ratio (INR) values. INR values for PT and aPTT were determined by dividing the PT or aPTT value for each experimental group by the PT or aPTT for the PBS treated group. This ratio was then raised to the power of the International Sensitivity Index (ISI) of the tissue factor used. The ISIS oligonucleotide, ISIS 416850, given with the chronic dose regimen is distinguished from the other oligonucleotides with an asterisk (*).

[3] = day 8, chronic dose regimen (*)
[4] = day 15, chronic dose regimen (*)
[5] = day 15, escalating dose regimen
[6] = day 22, chronic dose regimen (*)
[7] = day 22, escalating dose regimen
[8] = day 29, chronic dose regimen (*)
[9] = day 29, escalating dose regimen
[10] = day 36, chronic dose regimen (*)
[11] = day 36, escalating dose regimen
[12] = day 43, chronic dose regimen (*)
[13] = day 43, escalating dose regimen
[14] = day 50, chronic dose regimen (*)
[15] = day 50, escalating dose regimen
[16] = day 57, escalating dose regimen
[17] = day 64, escalating dose regimen
[18] = day 71, escalating dose regimen
[19] = day 78, escalating dose regimen
[20] = day 85, escalating dose regimen
[21] = day −5, chronic dose regimen (*)
[22] = day −5, escalating dose regimen
[23] = day −14, chronic dose regimen (*)
[24] = day −14, escalating dose regimen

Substance: 445522 (antisense eG*e[5mC]*eA*e[5mC]*eA*dG*dT*dT*dT*d[5mC]*dT*dG*dG*e[5mC]*eA*eG*eG*e[5mC]) [compound 445522]
- Percent inhibition of Factor 11 mRNA at 375 nM [1]: 59%
- Percent inhibition of Factor 11 mRNA at 750 nM [1]: 71%
- Percent inhibition of Factor 11 mRNA at 1,500 nM [1]: 83%
- Percent inhibition of Factor 11 mRNA at 3,000 nM [1]: 82%
- Percent inhibition of Factor 11 mRNA at 6,000 nM [1]: 81%
- Percent inhibition of Factor 11 mRNA at 12,000 nM [1]: 92%

Substance: 445531 (antisense eG*eG*e[5mC]*eA*eT*dT*dG*dG*dT*dG*d[5mC]*dA*d[5mC]*eA*eG*eT*eT*eT) [compound 445531]
- Percent inhibition of Factor 11 mRNA at 375 nM [1]: 44%
- Percent inhibition of Factor 11 mRNA at 750 nM [1]: 64%
- Percent inhibition of Factor 11 mRNA at 1,500 nM [1]: 78%
- Percent inhibition of Factor 11 mRNA at 3,000 nM [1]: 86%
- Percent inhibition of Factor 11 mRNA at 6,000 nM [1]: 91%
- Percent inhibition of Factor 11 mRNA at 12,000 nM [1]: 93%
- IC50 [1]: 440 nM

Substance: 416850 (antisense TGCACAGTTTCTGGCAGGCC; 5-10-5 gapmer, further chemistry not given here) [compound 416850]
- Percent inhibition of Factor 11 mRNA at 375 nM [1]: 40%
- Percent inhibition of Factor 11 mRNA at 750 nM [1]: 59%
- Percent inhibition of Factor 11 mRNA at 1,500 nM [1]: 69%
- Percent inhibition of Factor 11 mRNA at 3,000 nM [1]: 87%
- Percent inhibition of Factor 11 mRNA at 6,000 nM [1]: 90%
- Percent inhibition of Factor 11 mRNA at 12,000 nM [1]: 95%
- IC50 [1]: 560 nM

Substance: ISIS 416850: MOE gapmer, nucleobases 1275 to 1318 of SEQ ID NO: 1 (Table 8) (antisense TGCACAGTTTCTGGCAGGCC; MOE gapmer, wing and gap sizes not given here)
- PT ratio (INR) [2, 3]: 1.03
- aPTT ratio (INR) [2, 3]: 1.12
- PT ratio (INR) ([2]; day 8, escalating dose regimen): 1.00
- aPTT ratio (INR) ([2]; day 8, escalating dose regimen): 1.05
- PT ratio (INR) [2, 4]: 1.06
- aPTT ratio (INR) [2, 4]: 1.07
- PT ratio (INR) [2, 5]: 1.02
- aPTT ratio (INR) [2, 5]: 1.05
- PT ratio (INR) [2, 6]: 1.06
- aPTT ratio (INR) [2, 6]: 1.21
- PT ratio (INR) [2, 7]: 1.02
- aPTT ratio (INR) [2, 7]: 1.13
- PT ratio (INR) [2, 8]: 1.00
- aPTT ratio (INR) [2, 8]: 1.26
- PT ratio (INR) [2, 9]: 1.03
- aPTT ratio (INR) [2, 9]: 1.13
- PT ratio (INR) [2, 10]: 1.06
- aPTT ratio (INR) [2, 10]: 1.34
- PT ratio (INR) [2, 11]: 1.02
- aPTT ratio (INR) [2, 11]: 1.26
- PT ratio (INR) [2, 12]: 1.02
- aPTT ratio (INR) [2, 12]: 1.22
- PT ratio (INR) [2, 13]: 1.01
- aPTT ratio (INR) [2, 13]: 1.17
- PT ratio (INR) [2, 14]: 0.98
- aPTT ratio (INR) [2, 14]: 1.35
- PT ratio (INR) [2, 15]: 1.02
- aPTT ratio (INR) [2, 15]: 1.68
- PT ratio (INR) [2, 16]: 1.04
- aPTT ratio (INR) [2, 16]: 1.59
- PT ratio (INR) [2, 17]: 1.03
- aPTT ratio (INR) [2, 17]: 1.64
- PT ratio (INR) [2, 18]: 1.03
- aPTT ratio (INR) [2, 18]: 1.76
- PT ratio (INR) [2, 19]: 1.05
- aPTT ratio (INR) [2, 19]: 1.88
- PT ratio (INR) [2, 20]: 1.04
- aPTT ratio (INR) [2, 20]: 1.99
- PT ratio (INR) [2, 21]: 1.00
- aPTT ratio (INR) [2, 21]: 1.00
- PT ratio (INR) [2, 22]: 1.00
- aPTT ratio (INR) [2, 22]: 1.00
- PT ratio (INR) [2, 23]: 1.00
- aPTT ratio (INR) [2, 23]: 1.00
- PT ratio (INR) [2, 24]: 1.00
- aPTT ratio (INR) [2, 24]: 1.00
